Reference: paper PMC7352571, “New Anti-Cancer Strategy to Suppress Colorectal Cancer Growth Through Inhibition of ATG4B and Lysosome Function” (Cancers, 2020)

Assays:
L02 cells = test: CCK-8 cell viability assay, normal cells L02; type: cell-based; settings: at a higher concentration (40 µM), 48 h
Procedure: (§1) Cells were seeded and incubated overnight in 96-well plates at a density of 5 × 10^3 cells/well. […] A total of 10 µL CCK-8 were added to each well for additional 1 h and cell viability was measured by CCK-8 assay. Absorbance was measured at 450 nm. The IC50 values were calculated by GraphPad Prism 7 (GraphPad Software Inc., San Diego, CA, USA).
Figure S2. 163N could inhibit autophagy flux. (A) HeLa cells treated with different concentrations of
II/TUBA was calculated using ImageJ software.
was examined. The number of GFP-LC3B dots was quantified. Data are presented as mean ± SEM
was performed to assess cell viability. […]

HeLa cells = test: CCK-8 cell viability assay, HeLa; type: cell-based
Procedure: as §1

HL60 cells = test: CCK-8 cell viability assay, HL60; type: cell-based; settings: Homo sapiens, HL-60; CCK-8 assay
Procedure: as §1

caspase-3 = biological target: T1, caspase-3 (Homo sapiens, UniProt P42574); test: caspase-3 activity assay (Ac-DEVE-AFC cleavage in lysate of staurosporine-treated HeLa cells); type: biochemical; settings: even at a concentration of 50 µM
T1 construct: endogenous in cells; host or cells: HeLa (staurosporine-treated, whole cell lysate)
Procedure: . (B) Predicted binding model of compound XOS00163, XOS00201, and XOS00207 bind to ATG4B (PDB ID: 2CY7) pocket. […] . […] . HeLa cells were treated with 1 µM of staurosporine (SP) for 12 h to induce cell apoptosis. Then, 2 µg of the whole cell lysate were mixed with indicated compounds at 37° for 30 min, Ac-DEVE-AFC (25 µM) were then added to a volume of 50 µL, and the emission of 505 nm for AFC was recorded. […] |

SQSTM1 in HeLa cells = test: immunostaining of SQSTM1 dots; settings: 10 µM, 6 h
A549 cells = test: CCK-8 cell viability assay, A549; type: cell-based; settings: Homo sapiens, CCK-8 assay, 48 h
Procedure: as §1

HCT116 cells = test: real-time cellular analysis (RTCA); type: cell-based, Human; settings: 2 µM, wild type HCT116
Procedure: An E-Plate 16 (ACEA Biosciences, Hangzhou, China) was prepared with 50 µL of DMEM medium added to each well to do a background measurement in the xCELLigence instrument (ACEA Biosciences, China). 100 µL of passaged cell suspensions containing 2.5 × 10^3 cells were added to each well and then cells were settled on the base of the well for 30 min at room temperature. The plate was inserted into the RTCA system (housed within the incubator) and cell index (CI) values were assessed every 5 min over the following 72 h. After 24 h of cell seeding, the assay was paused and 2 µM 163N was added to each well. Then, the plate was placed in the station again and the analysis was restarted. After completing a total of 72 h of analysis, the data were analyzed with GraphPad 7.0 software.

ATG4A = ATG4A (Homo sapiens, UniProt Q8WYN0); test: FRET-based assay for ATG4A activity
Procedure: A FRET-based assay for detecting ATG4B activity was carried out as described [45].

U87 cells = test: CCK-8 cell viability assay, U87; type: cell-based; settings: Homo sapiens, U-87 MG; CCK-8 assay, 48 h
Procedure: as §1

MDA-MB-231 cells = test: CCK-8 cell viability assay, MDA-MB-231; type: cell-based; settings: Homo sapiens, CCK-8 assay, 48 h
Procedure: as §1

T98G cells = test: CCK-8 cell viability assay, T98G; type: cell-based; settings: Homo sapiens, CCK-8 assay, 48 h
Procedure: as §1

LC3-II in HCT116 cells = test: western blot for LC3 conversion, HCT116; settings: 1, 5, 10, 20 µM for 6 h; 10 µM time course
Procedure: The ratio of LC3B-II/TUBA was calculated using ImageJ software. […] The ratio of LC3B-II/TUBA was calculated using ImageJ software. […] Data are presented as mean ± SEM from three individual experiments. ** p < 0.01, *** p <0.001, ns, not significant.
20–30 µg of whole cell lysates were separated by SDS-PAGE to avoid saturation and transferred to PVDF membranes (Millipore, ISEQ00010, Burlington, MA, USA). After blocking, the membrane was incubated with primary antibodies and secondary antibodies. Specific proteins were detected using enhanced chemiluminescence developing agent (Millipore, WBULS0500). Images were taken using Kodak Image Station 4000 (Carestream Health, Rochester, NY, USA).

[1] = tested on: proteolytic activity of lysosomes in HeLa cells; test: DQ-BSA Red assay; type: cell-based; settings: 6 h, 163N 5 or 10 µM, Baf 0.5 µM, E64D 25 µM plus pepstatin A 50 µM
Procedure: Figure 5 163N causes lysosome dysfunction. […] . (C) HeLa cells were treated with or without 163N (10 µM) for 6 h, followed by immunostaining using cathepsin B and LAMP1 antibody. The colocalization of cathepsin B and LAMP1 was measured.
DQ-BSA Red assay: cells were incubated with 10 µg/mL DQ-BSA Red in EBSS medium at 37° for 1.5 h, and then new medium with or without the indicated compounds were added for another 4 or 6 h, and then fluorescence microscopy was used for detecting the intensity of red fluorescent.
Supplementary Materials: New Anti-Cancer Strategy
to Suppress Colorectal Cancer Growth Through
Inhibition of ATG4B and Lysosome Function
Figure S1. Compounds with a 6-methylpyrimidine-2,4-diamine structure could cause lysosome
inhibition. (A) The structure of the representative lysosome inhibitors. (B) GFP-LC3B HeLa cells were
treated with Baf (0.5 µM) or 5 µM of different lysosome inhibitors for 2 h, then LysoTracker Red (LTR,
25 ng/mL) was used and the relative LTR fluorescent intensity was measured. (C) HeLa cells were
firstly treated with 10 µg/mL DQ-BSA for 1.5 h, and then treated with Rap (1 µM), Baf (0.5 µM), E64D
(25 µM) plus pepstatin A (50 µM), or 5 µM of different lysosome inhibitors for 4 h.
Cancers 2020, 12, x; www.mdpi.com/journal/ cancers […]

GFP-LC3 A549 cells = test: GFP-LC3 dots in A549 cells stably expressing GFP-LC3; type: cell-based; settings: 6 h at different concentrations or 10 µM over time course
[2] = tested on: lysosomal membrane permeabilization in HeLa cells; test: immunostaining, colocalization of cathepsin B and LAMP1; type: cell-based; settings: 10 µM, 6 h
Procedure: Figure 5 163N causes lysosome dysfunction. […] (C) HeLa cells were treated with or without 163N (10 µM) for 6 h, followed by immunostaining using cathepsin B and LAMP1 antibody. The colocalization of cathepsin B and LAMP1 was measured.
Immunostaining assay was performed as described previously. Cells were fixed in 4% paraformaldehyde for 15–20 min followed by permeabilization with 0.1% Triton X-100 for another 15 min. Then, PBS containing 5% bovine serum albumin was used for blocking. Primary antibodies (1:150) was used at 4° for one night and then secondary antibodies (1:500) were applied at room temperature for 1 h. EVOS FL Auto (Life Technologies) was used to get the fluorescence images. At least three optical fields with at least 100 cells were analyzed for quantification.

Sequence of ATG4A (Q8WYN0 whole entry, species assumed): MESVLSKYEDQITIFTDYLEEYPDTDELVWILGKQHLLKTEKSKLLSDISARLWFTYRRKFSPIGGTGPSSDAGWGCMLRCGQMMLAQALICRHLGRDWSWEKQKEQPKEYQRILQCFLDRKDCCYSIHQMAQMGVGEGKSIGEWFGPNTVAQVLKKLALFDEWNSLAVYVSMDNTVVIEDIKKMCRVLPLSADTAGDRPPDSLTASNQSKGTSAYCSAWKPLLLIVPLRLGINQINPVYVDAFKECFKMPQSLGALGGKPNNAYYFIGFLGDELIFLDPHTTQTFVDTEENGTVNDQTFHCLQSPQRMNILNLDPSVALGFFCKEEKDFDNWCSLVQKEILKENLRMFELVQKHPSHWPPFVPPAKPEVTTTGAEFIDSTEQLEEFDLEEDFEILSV
T1 sequence (P42574 29-175 limits assumed): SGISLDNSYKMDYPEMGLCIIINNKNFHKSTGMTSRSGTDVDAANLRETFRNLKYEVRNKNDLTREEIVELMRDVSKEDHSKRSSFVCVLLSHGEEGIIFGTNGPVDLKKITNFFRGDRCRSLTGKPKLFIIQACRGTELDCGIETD
T1 sequence (P42574 176-277 limits assumed): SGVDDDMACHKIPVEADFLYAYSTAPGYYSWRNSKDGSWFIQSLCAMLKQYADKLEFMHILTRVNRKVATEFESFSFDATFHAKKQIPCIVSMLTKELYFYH

`COc1ccc(Nc2cc(C)nc(Nc3ccc(-c4cc5ccccc5o4)cc3)n2)cc1` [Compound 163N] was tested, and the “cell viability of normal cells L02” value (L02 cells) was “reduce the cell viability”, the “cytotoxicity relative to XOS00163, XOS00201 and XOS00207, HeLa” value (HeLa cells; HeLa cells) was “about five times higher cytotoxicity” and the IC50 (HeLa cells; Homo sapiens, HeLa, CCK-8 assay, 48 h) was 7.06 µM. The IC50 (HL60 cells) was 12.6 µM, the “inhibition effect on caspase-3 activity” value (caspase-3) was “no inhibition effect” and the “degradation of autophagic substrate SQSTM1” value (SQSTM1 in HeLa cells) was “significantly attenuated the degradation of the autophagic substrate SQSTM1”. The IC50 (A549 cells) was 7.68 µM, the “cytotoxic effect in RTCA” value (HCT116 cells) was “significant cytotoxic effects” and the IC50 (ATG4A) was 53.7 µM. For the same compound, the IC50 (U87 cells) was 10.6 µM, the IC50 (MDA-MB-231 cells) was 9.99 µM and the IC50 (T98G cells) was 7.23 µM. For the same compound, the “LC3-II level, HCT116” value (LC3-II in HCT116 cells) was “dose- and time-dependent accumulation of LC3-II”, the “dequenching of DQ-BSA (proteolytic activity of lysosome)” value [1] was “nearly no dequenching of DQ-BSA” and the GFP-LC3 dots (GFP-LC3 A549 cells) was “accumulation of GFP-LC3 dots in dose- and time-dependent manners”. For the same compound, the “lysosomal membrane permeabilization (cathepsin B/LAMP1 colocalization)” value [2] was “did not produce lysosomal membrane permeabilization”.
